Test systems include MCF7 breast; NCI-H23 lung; M14 melanoma; IGROV1 ovarian; NCI/ADR-RES ovarian; ACHN renal.
Test in all cases: growth of human tumour cells (NCI), 48 h

The results in this text go back to PubChem BioAssay (NCI).

SMILES strings stand for the structures.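 Assay format: 96-well plates, 48-hour exposure. The concentration for full growth arrest is given as TGI.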

As for `COc1cccc(/C=C2/Sc3scc(-c4ccccc4)[n+]3C2=O)c1O`, the TGI in the assay on MCF7 breast was above 100 µM; with NCI-H23 lung, 38.9 µM; in the assay with M14 melanoma it was above 100 µM; with IGROV1 ovarian it was 38.9 µM; in the assay with NCI/ADR-RES ovarian it was 42.3 µM; with ACHN renal, 40.9 µM.
As to `CC1(C)CC(=O)c2c(nc3ccc4ccccc4c3c2-c2ccc(NC(=O)CCCC(=O)Nc3ccc(-c4c5c(nc6ccc7ccccc7c46)CC(C)(C)CC5=O)cc3)cc2)C1`, the TGI in the assay with MCF7 breast, in the assay with NCI-H23 lung, with M14 melanoma, in the assay with IGROV1 ovarian, in the assay with NCI/ADR-RES ovarian and in the assay on ACHN renal was above 100 µM throughout.
With `COc1ccc(N2C(=O)C3c4[nH]c5ccc(C)cc5c4C4CCC(C)CC4C3C2=O)cc1` (stereo unspecified), the TGI in the assay with NCI-H23 lung, in the assay on M14 melanoma, in the assay with IGROV1 ovarian, with NCI/ADR-RES ovarian and in the assay with ACHN renal was above 100 µM throughout.
As to `CCCC(=O)NC1=C(NCC)C(=O)c2ccccc2C1=O`, the TGI in the assay with MCF7 breast, with NCI-H23 lung, in the assay on IGROV1 ovarian and in the assay with ACHN renal was above 100 µM throughout.
As to `COc1ccc2[nH]c3c(c2c1)CCn1c-3nc2ccccc2c1=O`, the TGI with MCF7 breast, with M14 melanoma, in the assay on IGROV1 ovarian, with NCI/ADR-RES ovarian and in the assay on ACHN renal was above 25 µM each time.
For the molecule `COc1cc(OC)c(OC)cc1/C=N/N=C(\N)NO`, the TGI with MCF7 breast, with NCI-H23 lung, with M14 melanoma, in the assay on IGROV1 ovarian, in the assay on NCI/ADR-RES ovarian and in the assay on ACHN renal was above 100 µM throughout.
`COC(=O)C1CC2(CCC1=O)Cc1ccccc1C2=O` (stereo unspecified): the TGI with MCF7 breast, with NCI-H23 lung, in the assay with M14 melanoma, in the assay on IGROV1 ovarian, in the assay on NCI/ADR-RES ovarian and in the assay on ACHN renal was above 100 µM each time.
`CN(C)c1ccc(N=Nc2ccc3nc[nH]c3c2)cc1`: the TGI in the assay on NCI-H23 lung was above 100 µM; in the assay with M14 melanoma it was 46.8 µM; in the assay with IGROV1 ovarian it was above 100 µM; with NCI/ADR-RES ovarian it was above 100 µM; in the assay on ACHN renal, 37.6 µM.
As for `CC1(CCC2C=CCC2)CCCNC1=S` (stereo unspecified), the TGI in the assay with MCF7 breast, in the assay on NCI-H23 lung, with M14 melanoma, in the assay on IGROV1 ovarian and with ACHN renal was above 10 µM each time.
Take `CCC1(CC)CC(=NNS(=O)(=O)c2ccc(C)cc2)C1`: the TGI in the assay on MCF7 breast, in the assay with NCI-H23 lung, in the assay on M14 melanoma, in the assay on IGROV1 ovarian, in the assay on NCI/ADR-RES ovarian and in the assay with ACHN renal was above 100 µM throughout.
Take `COc1nc(N)c(NC2OC(CO)C(O)C2O)c(=O)[nH]1` (stereo unspecified): the TGI with MCF7 breast, in the assay with NCI-H23 lung, in the assay with M14 melanoma, in the assay on IGROV1 ovarian, with NCI/ADR-RES ovarian and in the assay with ACHN renal was above 100 µM each time.
Consider `C#CCOCC12C=CC(O1)C1C(=O)N(C)C(=O)C12` (stereo unspecified), for which the TGI in the assay on MCF7 breast, with NCI-H23 lung, with M14 melanoma, in the assay with IGROV1 ovarian, in the assay with NCI/ADR-RES ovarian and with ACHN renal was above 100 µM throughout.
For the molecule `COC(=O)C1CCC(=O)N1CN(C(C)=O)c1ccccc1` (stereo unspecified), the TGI in the assay on MCF7 breast, with NCI-H23 lung, in the assay with M14 melanoma, in the assay on IGROV1 ovarian, in the assay with NCI/ADR-RES ovarian and in the assay on ACHN renal was above 100 µM in each case.
With `COc1nc2c(c(=O)n1C)N(C(C)=O)C1C(N2)OCC(OC(C)=O)C1OC(C)=O` (stereo unspecified), the TGI in the assay with MCF7 breast, in the assay on NCI-H23 lung, in the assay with M14 melanoma, in the assay with IGROV1 ovarian, with NCI/ADR-RES ovarian and with ACHN renal was above 10 µM in each case.
As to `O=C(NNC1=NCCN1)c1ccco1`, the TGI in the assay with MCF7 breast, in the assay with NCI-H23 lung, in the assay with M14 melanoma, in the assay with IGROV1 ovarian, with NCI/ADR-RES ovarian and in the assay on ACHN renal was above 100 µM in each case.
For `C/C(=N\Nc1nc2ccccc2s1)c1ncccn1`, the TGI was above 100 µM in the assay with MCF7 breast; 1.11 µM with NCI-H23 lung; 0.923 µM in the assay with IGROV1 ovarian; 0.0681 µM in the assay with NCI/ADR-RES ovarian; 0.177 µM with ACHN renal.
As for `O=C(N=S(NC(=O)c1ccccc1)C(Cl)(Cl)Cl)c1ccccc1` (stereo unspecified), the TGI was 76.5 µM with MCF7 breast; 30 µM in the assay on NCI-H23 lung; 30.7 µM in the assay with M14 melanoma; above 49 µM in the assay with IGROV1 ovarian; above 51.9 µM with NCI/ADR-RES ovarian; 47.5 µM in the assay with ACHN renal.
For the molecule `COc1ccc(NS(=O)CCCc2ccccc2)cc1` (stereo unspecified), the TGI with MCF7 breast, with NCI-H23 lung, in the assay on IGROV1 ovarian, with NCI/ADR-RES ovarian and in the assay on ACHN renal was above 100 µM throughout.
Regarding `COC(=O)C1C(OC(=O)c2ccccc2)CC2CCC1N2C(N)=O` (stereo unspecified), the TGI in the assay on MCF7 breast, in the assay on NCI-H23 lung, with M14 melanoma, with IGROV1 ovarian, with NCI/ADR-RES ovarian and in the assay with ACHN renal was above 100 µM in each case.
Turning to `CCOC(=O)c1c(N2CCCC2)nsc1Nc1ccccc1`, the TGI in the assay with NCI-H23 lung, in the assay with M14 melanoma, in the assay with IGROV1 ovarian, in the assay on NCI/ADR-RES ovarian and with ACHN renal was above 100 µM throughout.
Turning to `[N-]=[N+]=Nc1c(-c2ccccc2)c(Cl)nc2ccccc12`, the TGI with NCI-H23 lung, in the assay with M14 melanoma, in the assay with IGROV1 ovarian, with NCI/ADR-RES ovarian and with ACHN renal was above 100 µM each time.
As to `COc1ccc(NC2Oc3cc4c(cc3C(c3cccc(OC)c3OC)C2C)OCO4)cc1` (stereo unspecified), the TGI with MCF7 breast was above 100 µM; in the assay on NCI-H23 lung, 79.5 µM; in the assay on M14 melanoma, above 100 µM; with IGROV1 ovarian, above 100 µM; with ACHN renal, above 100 µM.
Take `O=C(c1ccccc1)c1ccc(COc2ccc(C(c3c(O)c4ccccc4oc3=O)c3c(O)c4ccccc4oc3=O)cc2)cc1`: the TGI with MCF7 breast is 67.5 µM; in the assay on NCI-H23 lung, 37.6 µM; in the assay on IGROV1 ovarian it was 28.5 µM; in the assay on NCI/ADR-RES ovarian, 40.9 µM; in the assay with ACHN renal, 38.1 µM.
